According to publication PMC4491109, “Synthesis and anticonvulsant activity of new N-phenyl-2-(4-phenylpiperazin-1-yl)acetamide derivatives” (Medicinal Chemistry Research, 2015):
Like-named read-outs stand apart in the source and are kept apart here.

Experiments:
Type in all cases: in vivo
[1] = tested on: maximal electroshock (MES) seizures; test: Maximal electroshock (MES) test, i.p. administration in mice; settings: Mus musculus, ip, doses of 30, 100 or 300 mg/kg
Experimental: (§1) Considering the aforementioned facts, the profile of anticonvulsant activity of final compounds 3–24 was established in the MES and scPTZ tests, after intraperitoneal (i.p.) injection in mice at doses of 30, 100 and 300 mg/kg. An observation was carried out at two different time intervals—0.5 and 4 h. Furthermore, in addition to the primary anticonvulsant screening, the acute neurological toxicity (NT) was determined in mice by the rotarod test.
(§2) Compounds 3–24 were pharmacologically preevaluated within the Antiepileptic Drug Development (ADD) Program in Epilepsy Branch, Neurological Disorders Program, National Institute of the Neurological and Communicative Disorders and Stroke (NIH/NINDS), Rockville, MD, USA, by using procedures described elsewhere (Krall et al., [1978]; Kupferberg, [1989]).
(§3) Phase I of the in vivo studies involved three tests: MES, scPTZ and rotarod test for NT. Male albino mice (CF#1 strain, weighing 18–25 g) and male albino rats (Sprague–Dawley) were used as experimental animals. The animals were housed in metabolic cages and allowed free access to food and water. The compounds were injected intraperitoneally to mice as a suspension in 0.5 % methylcellulose/water mixture at a dose level 30, 100 or 300 mg/kg with anticonvulsant activity and neurotoxicity assessment at 0.5 and 4 h after administration. Promising derivatives from phase I underwent phase VIa in which they were administrated orally into rats at a fixed dose of 30 mg/kg for both MES and the rotarod toxicity determination at five pretreatment times: 0.25, 0.5, 1, 2, 4 h. Groups of eight mice or four rats are employed.
In the MES screen, an electrical stimulus of 0.2 s in duration (50 mA in mice and 150 mA in rats) is delivered via corneal electrodes primed with an electrolyte solution containing an anesthetic agent. The endpoint is the tonic extension of the hind limbs. In the control groups, the procedures cause immediate hind limb tonic extension. Mice not displaying hind limb tonic extension are considered to be protected from seizures.

mice (rotarod test) = test: Neurotoxicity screening (NT), rotarod test, i.p. administration in mice; settings: for dose showing neurotoxicity in the rotarod test (NT): ip
Experimental: as §1, §3
The neurological toxicity test (NT) induced by a compound was detected in mice or rats using standardized rotarod test (Dunham and Miya, [1957]). Untreated control mice or rats, when placed on the rod, can maintained their equilibrium for a prolonged time period.

[2] = tested on: pentylenetetrazole-induced seizures; test: Subcutaneous pentylenetetrazole (scPTZ) test, i.p. administration in mice; settings: Mus musculus, ip, doses of 30, 100 or 300 mg/kg
Experimental: as §1, §2, §3
The scPTZ test utilizes a dose of pentylenetetrazole (85 mg/kg in mice) that produces clonic seizures lasting for a period of at least 5 s in 97 % (CD97) of animals tested. PTZ is administered 0.5 and 4 h after injections of tested compounds, and observation is carried out for 30 min. In the control groups, the first episode of clonic convulsions is observed between 6 and 15 min of observation. The absence of clonic convulsions in the observed time period of […] is interpreted as the compound’s ability to protect against PTZ-induced seizures.

[3] = tested on: 6-Hz psychomotor seizures; test: Psychomotor seizure test (6-Hz), i.p. in mice; settings: 100 mg/kg
Text: In the next step of pharmacological investigations, four compounds 12, 19, 20 and 24 were chosen for the evaluation of anticonvulsant activity in the psychomotor 6-Hz test (Table 4). The selection was made randomly as a part of the search of molecules providing anti-6-Hz protection among chemically diversified compounds pursued in the NIH/NINDS. It should be noticed that 6-Hz screen has been validated as a model of therapy-resistant epilepsy (Barton et al., [2001]).
The 6-Hz model is an alternative electroshock paradigm that uses low-frequency (6 Hz), long-duration (3 s) electrical stimulation. Corneal stimulation (0.2 ms duration monopolar rectangular pulses at 6-Hz for 3 s) was delivered by a constant-current device. During the stimulation, mice were manually restrained and released into the observation cage immediately after the current application. The seizures manifest in “stunned” posture associated with rearing, forelimb, automatic movements and clonus, twitching the vibrissae and Straub–tail. The duration of the seizure activity ranges from 60 to 120 s in untreated animals. At the end of the seizure, animals resume their normal exploratory behavior. The experimental end point is protection against the seizure. The animal is considered to be protected if it resumes its normal exploratory behavior within 10 s from the stimulation (Brown et al., [1953]).

[4] = 0.5 h, read-out: MES, minimum dose effective in half or more animals tested, 0.5 h
[5] = 4 h, read-out: MES, minimum dose effective in half or more animals tested, 4 h
[6] = 0.5 h, read-out: scPTZ, minimum dose effective in half or more animals tested, 0.5 h
[7] = 4 h, read-out: scPTZ, minimum dose effective in half or more animals tested, 4 h

SMILES	minimal effective dose [1, 4] [mg/kg]	minimal effective dose [1, 5] [mg/kg]	minimal effective dose [2, 6] [mg/kg]	minimal effective dose [2, 7] [mg/kg]	further results
Cl.Cl.O=C(CN1CCN(CCO)CC1)Nc1cccc(C(F)(F)F)c1 [Compound 23, 2-[4-(2-Hydroxyethyl)piperazin-1-yl]-N-[3-(trifluoromethyl)phenyl]acetamide dihydrochloride]	300	300	> 300	> 300	NT (rotarod), minimum dose neurotoxic in half or more animals tested, 0.5 h (mice (rotarod test); male, CF#1, mouse, in vivo): 300 mg/kg
Cl.O=C(CN1CCN(c2ccccc2Cl)CC1)Nc1cccc(C(F)(F)F)c1 [Compound 15, 2-[4-(2-Chlorophenyl)piperazin-1-yl]-N-[3-(trifluoromethyl)phenyl]acetamide monohydrochloride]	> 300	> 300	> 300	> 300	–
O=C(CN1CCN(c2cccc(Cl)c2Cl)CC1)Nc1cccc(C(F)(F)F)c1 [Compound 17, 2-[4-(2,3-Dichlorophenyl)piperazin-1-yl]-N-[3-(trifluoromethyl)phenyl]acetamide]	> 300	> 300	> 300	> 300	–
Cl.O=C(CN1CCN(c2ncccn2)CC1)Nc1cccc(Cl)c1 [Compound 10, N-(3-chlorophenyl)-2-(4-pyrimidin-2-ylpiperazin-1-yl)acetamide monohydrochloride]	> 300	> 300	> 300	> 300	–
Cl.O=C(CN1CCN(c2ccc(F)cc2)CC1)Nc1cccc(Cl)c1 [Compound 8, N-(3-chlorophenyl)-2-[4-(4-fluorophenyl)piperazin-1-yl]acetamide monohydrochloride]	> 300	> 300	> 300	> 300	–
Cl.O=C(CN1CCN(c2ccccc2F)CC1)Nc1cccc(C(F)(F)F)c1 [Compound 18, 2-[4-(2-Fluorophenyl)piperazin-1-yl]-N-[3-(trifluoromethyl)phenyl]acetamide monohydrochloride]	> 300	100	> 300	> 300	–
Cl.O=C(CN1CCN(c2ccccc2F)CC1)Nc1cccc(Cl)c1 [Compound 7, N-(3-chlorophenyl)-2-[4-(2-fluorophenyl)piperazin-1-yl]acetamide monohydrochloride]	> 300	> 300	> 300	> 300	–
Cl.O=C(CN1CCN(c2ccc(Cl)cc2)CC1)Nc1cccc(Cl)c1 [Compound 5, N-(3-chlorophenyl)-2-[4-(4-chlorophenyl)piperazin-1-yl]acetamide monohydrochloride]	> 300	> 300	> 300	> 300	–
CN1CCN(CC(=O)Nc2cccc(Cl)c2)CC1.Cl.Cl [Compound 12, N-(3-chlorophenyl)-2-(4-methylpiperazin-1-yl)acetamide dihydrochloride]	100	> 300	> 300	> 300	6-Hz, % of animals protected, 0.25 h ([3]; 0.25 h): 75%; 6-Hz, % of animals protected, 0.5 h ([3]; 0.5 h): 75%; 6-Hz, number of mice protected/number of mice tested, 0.25 h ([3]; current 32 mA, 0.25 h): 3/4; 6-Hz, number of mice protected/number of mice tested, 0.5 h ([3]; current 32 mA, 0.5 h): 3/4; 6-Hz, number of mice protected/number of mice tested, 1 h ([3]; current 32 mA, 1 h): 0/4; 6-Hz, number of mice protected/number of mice tested, 2 h ([3]; current 32 mA, 2 h): 0/4; 6-Hz, number of mice protected/number of mice tested, 4 h ([3]; current 32 mA, 4 h): 0/4
Cl.Cl.O=C(CN1CCN(Cc2ccccc2)CC1)Nc1cccc(Cl)c1 [Compound 11, 2-(4-Benzylpiperazin-1-yl)-N-(3-chlorophenyl)acetamide dihydrochloride]	> 300	> 300	> 300	> 300	NT (rotarod), minimum dose neurotoxic in half or more animals tested, 0.5 h (mice (rotarod test); male, CF#1, mouse, in vivo): 300 mg/kg; dose showing neurotoxicity in the rotarod test (NT) (mice (rotarod test); male, CF#1, mouse, in vivo): 300 mg/kg
Cl.O=C(CN1CCN(c2cccc(Cl)c2Cl)CC1)Nc1cccc(Cl)c1 [Compound 6, N-(3-chlorophenyl)-2-[4-(2,3-dichlorophenyl)piperazin-1-yl]acetamide monohydrochloride]	> 300	> 300	> 300	> 300	–
O=C(CN1CCN(c2ccccc2)CC1)Nc1cccc(C(F)(F)F)c1 [Compound 14, 2-(4-Phenylpiperazin-1-yl)-N-[3-(trifluoromethyl)phenyl]acetamide]	> 300	100	> 300	> 300	NT (rotarod), minimum dose neurotoxic in half or more animals tested, 0.5 h (mice (rotarod test); male, CF#1, mouse, in vivo): 300^Z mg/kg; NT (rotarod), minimum dose neurotoxic in half or more animals tested, 4 h (mice (rotarod test); male, CF#1, mouse, in vivo, 4 h): 300 mg/kg; dose showing neurotoxicity in the rotarod test (NT) (mice (rotarod test); male, CF#1, mouse, in vivo): 300 mg/kg; response comment (adverse sign observed) (mice (rotarod test); mice, i.p., 300 mg/kg): respiratory depression
Cl.O=C(CN1CCN(c2ncccn2)CC1)Nc1cccc(C(F)(F)F)c1 [Compound 21, 2-(4-Pyrimidin-2-ylpiperazin-1-yl)-N-[3-(trifluoromethyl)phenyl]acetamide monohydrochloride]	> 300	> 300	> 300	> 300	NT (rotarod), minimum dose neurotoxic in half or more animals tested, 0.5 h (mice (rotarod test); male, CF#1, mouse, in vivo): 300 mg/kg
Cl.O=C(CN1CCN(c2ccccc2Cl)CC1)Nc1cccc(Cl)c1 [Compound 4, N-(3-chlorophenyl)-2-[4-(2-chlorophenyl)piperazin-1-yl]acetamide monohydrochloride]	> 300	> 300	> 300	> 300	–
Cl.O=C(CN1CCN(c2ccccc2)CC1)Nc1cccc(Cl)c1 [Compound 3, N-(3-chlorophenyl)-2-(4-phenylpiperazin-1-yl)acetamide monohydrochloride]	> 300	> 300	> 300	> 300	–
Cl.O=C(CN1CCN(c2cccc(C(F)(F)F)c2)CC1)Nc1cccc(Cl)c1 [Compound 9, N-(3-chlorophenyl)-2-[4-[3-(trifluoromethyl)phenyl]piperazin-1-yl]acetamide monohydrochloride]	> 300	> 300	> 300	> 300	–
O=C(CN1CCN(c2ccc(Cl)cc2)CC1)Nc1cccc(C(F)(F)F)c1 [Compound 16, 2-[4-(4-Chlorophenyl)piperazin-1-yl]-N-[3-(trifluoromethyl)phenyl]acetamide]	> 300	100	> 300	> 300	–
